PubChem BioAssay AID651697 (Sanford-Burnham Center for Chemical Genomics, 2012)
pIC50: −log10 of the molar value.

Target: Sentrin-specific protease 1 (Homo sapiens) (UniProt Q9P0U3)
Assay: potency of human SENP1 inhibitors, dose response, biochemical, kinetic FRET (AID 651697)
Conditions: recombinant SENP1 catalytic domain, kinetic FRET protease assay

Chain of Sentrin-specific protease 1 (Homo sapiens) (Q9P0U3 419-644 limits assumed): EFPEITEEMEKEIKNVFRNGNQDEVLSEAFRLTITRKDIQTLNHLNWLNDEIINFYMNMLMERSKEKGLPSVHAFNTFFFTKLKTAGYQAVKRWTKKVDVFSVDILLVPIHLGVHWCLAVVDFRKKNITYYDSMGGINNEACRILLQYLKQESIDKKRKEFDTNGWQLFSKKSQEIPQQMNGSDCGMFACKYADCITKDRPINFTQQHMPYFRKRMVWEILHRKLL

pIC50 | SMILES
4.85 | COCCNC(=O)c1cccc2c1C(=O)c1ccc(N3CCOCC3)cc1S2(=O)=O
4.73 | Cc1nc2ccc(NS(=O)(=O)c3ccc(F)cc3F)cc2s1
5.11 | O=C(c1ccccc1)[C@@H]1[C@@H]2C(=O)N(c3ccc(F)cc3)C(=O)[C@@H]2C2CCCN21 (some centres undefined)
5.08 | Oc1ccc(Cl)cc1C1=Nc2ccccc2N=C(c2ccco2)C1
